Bridge positions count the residues as written; N and C are the ends. Square brackets hold non-standard residues; d marks the D form. Peptide text beside a SMILES is read from it. * marks the point of attachment. ξ: configuration not given here. Bip = N[C@@H](Cc1ccc(-c2ccccc2)cc1)C(=O)O; Phe(3-Me) = Cc1cccc(C[C@H](N)C(=O)O)c1; Phe(4-F) = N[C@@H](Cc1ccc(F)cc1)C(=O)O; Val(3-OH) = CC(C)(O)[C@H](N)C(=O)O; Cha = N[C@@H](CC1CCCCC1)C(=O)O; Ile(3ξ) = CCC(C)[C@H](N)C(=O)O; Thr(3ξ) = CC(O)[C@H](N)C(=O)O; Carboxymethyl = O=C(O)C*; Nle = CCCC[C@H](N)C(=O)O; Orn = NCCC[C@H](N)C(=O)O; Aun = NCCCCCCCCCCC(=O)O; Dab = NCC[C@H](N)C(=O)O; Nva = CCC[C@H](N)C(=O)O; AEEA = NCCOCCOCC(=O)O
Molecular target: T1, PD-1/PD-L1 interaction (PE-labeled human PD-L1-Ig binding to Jurkat cell line over-expressing human PD-1) (Homo sapiens, UniProt Q15116)
T1 construct: expressed in transfected cells; host or cells: Jurkat
T1 sequence (Q15116 25-288): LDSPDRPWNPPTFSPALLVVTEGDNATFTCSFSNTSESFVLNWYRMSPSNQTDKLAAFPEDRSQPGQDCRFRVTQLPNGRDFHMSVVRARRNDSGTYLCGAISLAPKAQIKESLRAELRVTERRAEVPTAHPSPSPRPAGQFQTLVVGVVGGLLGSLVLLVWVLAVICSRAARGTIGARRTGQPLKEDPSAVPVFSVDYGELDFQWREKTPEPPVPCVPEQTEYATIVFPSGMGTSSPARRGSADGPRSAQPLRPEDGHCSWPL
Experiment: Jurkat-PD-1 Cell Binding High-Content Screening Assay (CBA)
Assay type: cell-based
Settings: Jurkat cell line over-expressing human PD-1; PE-labeled PD-L1-Ig 20 nM final; read-out: Jurkat hPD1-PDL1 IC50
Procedure, shortened: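 First, compound is added to PD-1-expressing Jurkat cells in serum-containing DMEM and left 2 h at 37° C. Next, PE-conjugated PD-L1-Ig is introduced at 20 nM final concentration for 1 hour. Finally, cells are fixed in 4% paraformaldehyde with Hoechst 33342, washed and imaged.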

IC50	Compound
5.8 nM	CCC[C@@H]1NC(=O)CSC[C@@H](C(=O)N[C@@H](CCN)C(=O)NCCCCCCCCCCC(=O)O)NC(=O)[C@H](CCC(=O)O)NC(=O)[C@H](C(C)(C)O)NC(=O)[C@H](CC2CCCCC2)NC(=O)[C@H](CCN)NC(=O)[C@@H](CC(C)C)NC(=O)[C@H](CCCN)NC(=O)[C@H](Cc2ccc(OCC(=O)O)cc2)NC(=O)[C@H](Cc2ccc(-c3ccccc3)cc2)NC(=O)[C@H](Cc2ccc(OCC(=O)O)cc2)NC(=O)[C@H](Cc2cccc(C)c2)NC(=O)[C@H](CC(=O)O)NC(=O)[C@H](Cc2ccc(OCC(=O)O)cc2)NC1=O [Compound 3795] ({CH2CO}-[Nva]Y(Carboxymethyl)D[Phe(3-Me)]Y(Carboxymethyl)[Bip]Y(Carboxymethyl)[Orn][dL][Dab][Cha][Val(3-OH)]EC[Dab][Aun]-OH; thioether N-14)
1.9 nM	CCCC[C@@H]1NC(=O)CSC[C@@H](C(=O)N[C@@H](CCN)C(=O)NCCCCCCCCCCC(=O)O)NC(=O)[C@H](CCC(=O)O)NC(=O)[C@H](C(C)(C)O)NC(=O)[C@H](CC2CCCCC2)NC(=O)[C@H](CCN)NC(=O)[C@@H](CC(C)C)NC(=O)[C@H](CCCN)NC(=O)[C@H](Cc2ccc(OCC(=O)O)cc2)NC(=O)[C@H](Cc2ccc(-c3ccccc3)cc2)NC(=O)[C@H](Cc2ccc(OCC(=O)O)cc2)NC(=O)[C@H](Cc2cccc(C)c2)NC(=O)[C@H](CC(=O)O)NC(=O)[C@H](Cc2ccc(OCC(=O)O)cc2)NC1=O [Compound 3796] ({CH2CO}-[Nle]Y(Carboxymethyl)D[Phe(3-Me)]Y(Carboxymethyl)[Bip]Y(Carboxymethyl)[Orn][dL][Dab][Cha][Val(3-OH)]EC[Dab][Aun]-OH; thioether N-14)
2.1 nM	Cc1cccc(C[C@@H]2NC(=O)[C@H](CC(=O)O)NC(=O)[C@H](Cc3ccc(OCC(=O)O)cc3)NC(=O)[C@H](CCN)NC(=O)CSC[C@@H](C(=O)N[C@@H](CCN)C(=O)NCCOCCOCC(=O)NCCCCCCCCCCC(=O)O)NC(=O)[C@H](CCC(=O)O)NC(=O)[C@H](C(C)O)NC(=O)[C@H](CC3CCCCC3)NC(=O)[C@H](CCN)NC(=O)[C@@H](CC(C)C)NC(=O)[C@H](CCCN)NC(=O)[C@H](Cc3ccc(OCC(=O)O)cc3)NC(=O)[C@H](Cc3ccc(-c4ccccc4)cc3)NC(=O)[C@H](Cc3ccc(OCC(=O)O)cc3)NC2=O)c1 (stereo partly drawn) [Compound 3797] ({CH2CO}-[Dab]Y(Carboxymethyl)D[Phe(3-Me)]Y(Carboxymethyl)[Bip]Y(Carboxymethyl)[Orn][dL][Dab][Cha][Thr(3ξ)]EC[Dab][AEEA][Aun]-OH; thioether N-14)
28.4 nM	Cc1cccc(C[C@@H]2NC(=O)[C@H](CC(=O)O)NC(=O)[C@H](Cc3ccc(OCC(=O)O)cc3)NC(=O)[C@H](Cc3ccc(F)cc3)NC(=O)CSC[C@@H](C(=O)N[C@@H](CCN)C(=O)NCCCCCCCCCCC(=O)O)NC(=O)[C@H](Cc3cnc[nH]3)NC(=O)[C@H](C(C)(C)O)NC(=O)[C@H](CC3CCCCC3)NC(=O)[C@H](CCN)NC(=O)[C@@H](CC(C)C)NC(=O)[C@H](CCCN)NC(=O)[C@H](Cc3ccc(OCC(=O)O)cc3)NC(=O)[C@H](Cc3ccc(-c4ccccc4)cc3)NC(=O)[C@H](Cc3ccc(OCC(=O)O)cc3)NC2=O)c1 [Compound 3798] ({CH2CO}-[Phe(4-F)]Y(Carboxymethyl)D[Phe(3-Me)]Y(Carboxymethyl)[Bip]Y(Carboxymethyl)[Orn][dL][Dab][Cha][Val(3-OH)]HC[Dab][Aun]-OH; thioether N-14)
11.1 nM	Cc1cccc(C[C@@H]2NC(=O)[C@H](CC(=O)O)NC(=O)[C@H](Cc3ccc(OCC(=O)O)cc3)NC(=O)[C@H](Cc3ccc(F)cc3)NC(=O)CSC[C@@H](C(=O)N[C@@H](CCN)C(=O)NCCOCCOCC(=O)NCCCCCCCCCCC(=O)O)NC(=O)[C@H](CC(=O)O)NC(=O)[C@H](C(C)C)NC(=O)[C@H](CC3CCCCC3)NC(=O)[C@H](CCN)NC(=O)[C@@H](CC(C)C)NC(=O)[C@H](CCCN)NC(=O)[C@H](Cc3ccc(OCC(=O)O)cc3)NC(=O)[C@H](Cc3ccc(-c4ccccc4)cc3)NC(=O)[C@H](Cc3ccc(OCC(=O)O)cc3)NC2=O)c1 [Compound 3799] ({CH2CO}-[Phe(4-F)]Y(Carboxymethyl)D[Phe(3-Me)]Y(Carboxymethyl)[Bip]Y(Carboxymethyl)[Orn][dL][Dab][Cha]VDC[Dab][AEEA][Aun]-OH; thioether N-14)
12.1 nM	Cc1cccc(C[C@@H]2NC(=O)[C@H](CC(=O)O)NC(=O)[C@H](Cc3ccc(OCC(=O)O)cc3)NC(=O)[C@H](Cc3ccc(F)cc3)NC(=O)CSC[C@@H](C(=O)N[C@@H](CCN)C(=O)NCCOCCOCC(=O)NCCCCCCCCCCC(=O)O)NC(=O)[C@H](CCC(=O)O)NC(=O)[C@H](C(C)C)NC(=O)[C@H](CC3CCCCC3)NC(=O)[C@H](CCN)NC(=O)[C@@H](CC(C)C)NC(=O)[C@H](CCCN)NC(=O)[C@H](Cc3ccc(OCC(=O)O)cc3)NC(=O)[C@H](Cc3ccc(-c4ccccc4)cc3)NC(=O)[C@H](Cc3ccc(OCC(=O)O)cc3)NC2=O)c1 [Compound 3800] ({CH2CO}-[Phe(4-F)]Y(Carboxymethyl)D[Phe(3-Me)]Y(Carboxymethyl)[Bip]Y(Carboxymethyl)[Orn][dL][Dab][Cha]VEC[Dab][AEEA][Aun]-OH; thioether N-14)
2.5 nM	Cc1cccc(C[C@@H]2NC(=O)[C@H](CC(=O)O)NC(=O)[C@H](Cc3ccc(OCC(=O)O)cc3)NC(=O)[C@H](CCN)NC(=O)CSC[C@@H](C(=O)N[C@@H](CCN)C(=O)NCCOCCOCC(=O)NCCCCCCCCCCC(=O)O)NC(=O)[C@H](CC(=O)O)NC(=O)[C@H](C(C)C)NC(=O)[C@H](CC3CCCCC3)NC(=O)[C@H](CCN)NC(=O)[C@@H](CC(C)C)NC(=O)[C@H](CCCN)NC(=O)[C@H](Cc3ccc(OCC(=O)O)cc3)NC(=O)[C@H](Cc3ccc(-c4ccccc4)cc3)NC(=O)[C@H](Cc3ccc(OCC(=O)O)cc3)NC2=O)c1 [Compound 3801] ({CH2CO}-[Dab]Y(Carboxymethyl)D[Phe(3-Me)]Y(Carboxymethyl)[Bip]Y(Carboxymethyl)[Orn][dL][Dab][Cha]VDC[Dab][AEEA][Aun]-OH; thioether N-14)
36.6 nM	CCC(C)[C@@H]1NC(=O)[C@H](Cc2ccc(-c3ccccc3)cc2)NC(=O)[C@H](C(C)C)NC(=O)[C@H](Cc2c[nH]c3ccccc23)NC(=O)[C@H](CC(=O)O)NC(=O)[C@H](Cc2ccc(OCC(=O)O)cc2)NC(=O)[C@H](Cc2ccc(F)cc2)NC(=O)CSC[C@@H](C(=O)N[C@@H](CCN)C(=O)NCCOCCOCC(=O)NCCCCCCCCCCC(=O)O)NC(=O)[C@H](CC(=O)O)NC(=O)[C@H](C(C)O)NC(=O)[C@H](CC2CCCCC2)NC(=O)[C@H](CCN)NC(=O)[C@@H](CC(C)C)NC(=O)[C@H](CCCN)NC1=O (stereo partly drawn) [Compound 3802] ({CH2CO}-[Phe(4-F)]Y(Carboxymethyl)DWV[Bip][Ile(3ξ)][Orn][dL][Dab][Cha][Thr(3ξ)]DC[Dab][AEEA][Aun]-OH; thioether N-14)
2.7 nM	CCC[C@@H]1NC(=O)CSC[C@@H](C(=O)N[C@@H](CCN)C(=O)NCCOCCOCC(=O)NCCCCCCCCCCC(=O)O)NC(=O)[C@H](Cc2cnc[nH]2)NC(=O)[C@H](C(C)C)NC(=O)[C@H](CC2CCCCC2)NC(=O)[C@H](CCN)NC(=O)[C@@H](CC(C)C)NC(=O)[C@H](CCCN)NC(=O)[C@H](Cc2ccc(OCC(=O)O)cc2)NC(=O)[C@H](Cc2ccc(-c3ccccc3)cc2)NC(=O)[C@H](Cc2ccc(OCC(=O)O)cc2)NC(=O)[C@H](Cc2cccc(C)c2)NC(=O)[C@H](CC(=O)O)NC(=O)[C@H](Cc2ccc(OCC(=O)O)cc2)NC1=O [Compound 3803] ({CH2CO}-[Nva]Y(Carboxymethyl)D[Phe(3-Me)]Y(Carboxymethyl)[Bip]Y(Carboxymethyl)[Orn][dL][Dab][Cha]VHC[Dab][AEEA][Aun]-OH; thioether N-14)
